In brackets after ≈: the same amount, converted by molar mass.

For orientation: MIC means the smallest concentration in the dilution series that meets the test's criterion for growth inhibition. Low values mean inhibition by little substance, high ones a need for much substance. The term IC50 denotes the concentration that gives 50% inhibition.

Experiment [1] deals with Bacillus subtilis. The experiment in a line: Antibacterial activity against Bacillus subtilis MTCC 1134 after 24 hrs by broth dilution method. Format: functional. Particulars: MTCC 1134, 24 h.
In experiment [2] the test system is Mycobacterium tuberculosis. The experiment in a line: Antimycobacterial activity against Mycobacterium tuberculosis H37Rv ATCC 27294 after 5 days by microplate alamar blue assay. The conditions noted are these: H37Rv ATCC 27294, 120 h. The format is functional. Background: Resazurin is reduced to fluorescent resorufin, in cell work by metabolically active cells.

Experiment [3] has as its system Pseudomonas aeruginosa. Briefly: Antibacterial activity against Pseudomonas aeruginosa MTCC 1034 after 24 hrs by broth dilution method. Particulars: MTCC 1034, 24 h. Format: functional. For orientation: Dilution methods test growth across graded concentrations, often in twofold steps.
The subject of experiment [4] is Escherichia coli. Briefly: Antibacterial activity against Escherichia coli MTCC 1559 after 24 hrs by broth dilution method. The format is functional. The conditions noted are these: MTCC 1559, 24 h.
Experiment [5] deals with DNA gyrase subunit A/DNA gyrase subunit B (Mycobacterium tuberculosis (strain ATCC 25618 / H37Rv), UniProt P9WG45+P9WG47). Briefly: Inhibition of Mycobacterium tuberculosis H37Rv DNA gyrase A/B expressed in Escherichia coli assessed as reduction in supercoiling of relaxed pBR322 DNA substrate measured after 60 mins by ethidium bromide staining based agarose gel electrophoresis method.
DNA gyrase subunit A/DNA gyrase subunit B, sequence (P9WG45 whole entry): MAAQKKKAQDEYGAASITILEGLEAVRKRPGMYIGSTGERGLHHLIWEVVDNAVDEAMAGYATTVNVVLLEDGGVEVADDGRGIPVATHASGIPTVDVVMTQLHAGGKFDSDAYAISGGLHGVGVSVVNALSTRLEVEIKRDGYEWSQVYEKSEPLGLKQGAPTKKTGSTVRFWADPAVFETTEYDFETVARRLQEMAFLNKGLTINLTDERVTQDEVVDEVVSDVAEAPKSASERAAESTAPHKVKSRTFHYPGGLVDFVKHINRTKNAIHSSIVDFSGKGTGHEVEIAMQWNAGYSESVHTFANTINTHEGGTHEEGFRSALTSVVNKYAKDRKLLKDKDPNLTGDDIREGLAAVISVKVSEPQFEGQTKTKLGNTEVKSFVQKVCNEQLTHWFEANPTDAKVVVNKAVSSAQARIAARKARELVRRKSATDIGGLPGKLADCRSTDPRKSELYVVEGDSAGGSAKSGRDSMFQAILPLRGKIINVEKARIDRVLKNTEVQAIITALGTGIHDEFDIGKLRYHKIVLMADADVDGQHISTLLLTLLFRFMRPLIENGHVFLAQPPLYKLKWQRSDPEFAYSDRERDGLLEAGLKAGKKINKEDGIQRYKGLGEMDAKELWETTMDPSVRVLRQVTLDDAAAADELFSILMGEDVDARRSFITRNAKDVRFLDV
DNA gyrase subunit A/DNA gyrase subunit B, sequence (P9WG47 whole entry): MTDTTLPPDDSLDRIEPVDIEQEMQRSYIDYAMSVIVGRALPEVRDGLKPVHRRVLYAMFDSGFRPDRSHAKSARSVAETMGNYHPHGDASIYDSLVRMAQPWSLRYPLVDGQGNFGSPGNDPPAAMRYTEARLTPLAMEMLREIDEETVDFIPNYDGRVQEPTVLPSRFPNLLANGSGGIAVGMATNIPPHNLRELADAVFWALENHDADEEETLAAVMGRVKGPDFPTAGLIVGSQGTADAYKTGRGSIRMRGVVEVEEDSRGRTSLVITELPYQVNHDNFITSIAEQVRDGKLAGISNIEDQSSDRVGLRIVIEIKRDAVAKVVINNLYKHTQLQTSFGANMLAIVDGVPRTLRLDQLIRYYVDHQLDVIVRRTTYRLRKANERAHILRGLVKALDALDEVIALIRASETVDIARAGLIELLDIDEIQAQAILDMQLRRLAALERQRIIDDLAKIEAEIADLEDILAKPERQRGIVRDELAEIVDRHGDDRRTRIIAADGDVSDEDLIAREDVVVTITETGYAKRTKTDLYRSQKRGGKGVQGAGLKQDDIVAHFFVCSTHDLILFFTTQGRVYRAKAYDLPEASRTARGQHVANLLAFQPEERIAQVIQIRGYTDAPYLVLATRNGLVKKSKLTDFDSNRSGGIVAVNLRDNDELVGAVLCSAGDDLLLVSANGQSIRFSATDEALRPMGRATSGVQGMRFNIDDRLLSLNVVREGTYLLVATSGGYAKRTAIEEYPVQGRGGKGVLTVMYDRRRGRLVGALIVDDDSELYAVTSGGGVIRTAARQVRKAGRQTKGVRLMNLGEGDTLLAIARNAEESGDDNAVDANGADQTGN

Experiment [6] relates to Staphylococcus aureus. The experiment in a line: Antibacterial activity against Staphylococcus aureus MTCC 96 assessed as zone of inhibition at 100 ug/ml by disc diffusion method. Format: functional. The conditions noted are these: read-out: IZ. On the technique in general: Agar diffusion results depend on both activity and mobility in agar.
Experiment [7] concerns Escherichia coli. Briefly: Antibacterial activity against Escherichia coli MTCC 443 assessed as zone of inhibition at 100 ug/ml by disc diffusion method. Particulars: read-out: IZ. Format: functional.
The subject of experiment [8] is Streptococcus pyogenes. Briefly: Antibacterial activity against Streptococcus pyogenes MTCC 442 assessed as zone of inhibition at 100 ug/ml by disc diffusion method. Format: functional. The conditions noted are these: read-out: IZ.
The test system of experiment [9] is Pseudomonas aeruginosa. The experiment in a line: Antibacterial activity against Pseudomonas aeruginosa MTCC 424 assessed as zone of inhibition at 100 ug/ml by disc diffusion method. Format: functional. Particulars: read-out: IZ.
Experiment [10] has as its system Bacillus spizizenii. The experiment in a line: Antibacterial activity against Bacillus subtilis ATCC 6633 after 24 hrs by broth dilution method. Format: functional. Particulars: ATCC 6633, 24 h.
Experiment [11] concerns Proteus vulgaris. Briefly: Antibacterial activity against Proteus vulgaris […] after 24 hrs by broth dilution method. Format: functional.
Experiment [12] concerns Staphylococcus aureus. Briefly: Antibacterial activity against Staphylococcus aureus ATCC 29213 after 24 hrs by broth dilution method. Particulars: ATCC 29213, 24 h. The format is functional.
The test system of experiment [13] is Escherichia coli. Briefly: Antibacterial activity against Escherichia coli ATCC 11229 after 24 hrs by broth dilution method. Format: functional. The conditions noted are these: ATCC 11229, 24 h.
Experiment [14] deals with Streptococcus pyogenes. Briefly: Antibacterial activity against Streptococcus pyogenes MTCC 442 assessed as zone of inhibition at 25 ug/ml by agar well diffusion method. Particulars: read-out: IZ. The format is functional.
Experiment [15] deals with Escherichia coli. The experiment in a line: Antibacterial activity against Escherichia coli MTCC 443 assessed as zone of inhibition at 25 ug/ml by agar well diffusion method. Format: functional. Particulars: read-out: IZ.
The test system of experiment [16] is Pseudomonas aeruginosa. The experiment in a line: Antibacterial activity against Pseudomonas aeruginosa MTCC 424 assessed as zone of inhibition at 25 ug/ml by agar well diffusion method. Format: functional. The conditions noted are these: read-out: IZ.
In experiment [17] the test system is Staphylococcus aureus. The experiment in a line: Antibacterial activity against Staphylococcus aureus MTCC 96 assessed as zone of inhibition at 25 ug/ml by agar well diffusion method. The format is functional. The conditions noted are these: read-out: IZ.
For experiment [18], the system named is Escherichia coli. Briefly: Antibacterial activity against Escherichia coli assessed as diameter of inhibition zone at 250 ug/ml after 24 hrs by disc diffusion method. Format: functional. Particulars: read-out: DIZ.
Experiment [19] has as its system Staphylococcus aureus. The experiment in a line: Antibacterial activity against Staphylococcus aureus assessed as diameter of inhibition zone at 250 ug/ml after 24 hrs by disc diffusion method. Format: functional. The conditions noted are these: read-out: DIZ.
The test system of experiment [20] is Klebsiella pneumoniae. Briefly: Antibacterial activity against Klebsiella pneumoniae assessed as zone of inhibition at 1 mg/ml after 32 hrs by agar-well diffusion method. Particulars: read-out: IZ. The format is functional.
For experiment [21], the system named is Escherichia coli. Briefly: Antibacterial activity against Escherichia coli assessed as zone of inhibition at 1 mg/ml after 32 hrs by agar-well diffusion method. The conditions noted are these: read-out: IZ. Format: functional.
Experiment [22] has as its system Pseudomonas aeruginosa. The experiment in a line: Antibacterial activity against Pseudomonas aeruginosa assessed as zone of inhibition at 1 mg/ml after 32 hrs by agar-well diffusion method. The conditions noted are these: read-out: IZ. Format: functional.
Experiment [23] relates to Staphylococcus aureus. Briefly: Antibacterial activity against Staphylococcus aureus assessed as zone of inhibition at 1 mg/ml after 32 hrs by agar-well diffusion method. Particulars: read-out: IZ. Format: functional.
Experiment [24] concerns Pseudomonas aeruginosa. The experiment in a line: Antibacterial activity against Pseudomonas aeruginosa assessed as zone of inhibition at 50 ug/ml after 3 days by filter paper disc method. The format is functional. The conditions noted are these: 72 h, read-out: IZ.
Experiment [25] concerns Escherichia coli. Briefly: Antibacterial activity against Escherichia coli assessed as zone of inhibition at 50 ug/ml after 3 days by filter paper disc method. The format is functional. The conditions noted are these: 72 h, read-out: IZ.

Regarding `CN[C@@H]1[C@H](O[C@H]2[C@H](O[C@H]3[C@H](O)[C@@H](O)[C@H](N=C(N)N)[C@@H](O)[C@@H]3N=C(N)N)O[C@@H](C)[C@]2(O)C=O)O[C@@H](CO)[C@H](O)[C@H]1O` [STREPTOMYCIN], the minimum inhibitory concentration (MIC) in experiment [1] was 17.2 to 19.4 µg/mL (≈ 29.7 to 33.3 µM); in experiment [2], 6.25 µg/mL (≈ 10.7 µM); in [3], 17.2 to 19.4 µg/mL (≈ 29.7 to 33.3 µM); in experiment [4], 17.2 to 19.4 µg/mL (≈ 29.7 to 33.3 µM).

With `O=C1Nc2ccc([N+](=O)[O-])cc2/C1=N/NC(=O)c1cc2ccccc2o1`, in experiment [5], the IC50 was in the range of 50 to 200 µM.

For the compound `COc1ccc(S(=O)(=O)Nc2cc(C)cc3cc(COC(=O)NCc4ccccc4)oc23)cc1`, the zone of inhibition at 100 µg/mL in experiment [6], in experiment [7], in experiment [8] and in [9] was 19 to 28 mm each time.

As to `Cc1ccc2c(c1)/C(=N/NC(=O)c1cc3ccccc3o1)C(=O)N2`, the concentration for half-maximal inhibition (IC50) in [5] lay within 50 to 200 µM.

As for `O=C(N/N=C1\C(=O)N(c2ccccc2)c2ccccc21)c1cc2ccccc2o1`, the IC50 in experiment [5] was in the range of 50 to 200 µM.

In the case of `COc1ccc(-c2nn(-c3ccccc3)cc2/C=C/c2oc3c4c(ccc3c2C(=O)c2ccc(Br)cc2)OCC=C4)cc1OC`, the MIC in experiment [10], in [11], in [12] and in experiment [13] was 1.6 to 3.1 µg/mL (≈ 2.43 to 4.7 µM) throughout.

Regarding `Cc1cc(NS(=O)(=O)c2ccccc2)c2oc(COC(=O)NCc3ccccc3)cc2c1`, the zone of inhibition at 100 µg/mL in experiment [6], in [7], in experiment [8] and in experiment [9] was 11 to 28 mm each time.

Regarding `COc1cc(OC)c(-c2cc3cc(C(=O)/C=C/c4ccc5occc5c4)cc(OC)c3o2)c(OC)c1`, the zone of inhibition at 25 µg/mL in [14], in experiment [15], in [16] and in experiment [17] was 21 to 28 mm throughout.

In the case of `Cc1ccc(Oc2nc3ccc(C)cc3cc2C2SCC(=O)N2NC(=O)c2cc(-c3cc4ccccc4o3)n(-c3ccccc3)n2)cc1` (configuration not stated), the zone of inhibition at 250 µg/mL in experiment [18] and in experiment [19] was 12 to 14 mm throughout.

As to `CC(=O)Nc1cc(C)cc2cc(COC(=O)NCc3ccccc3)oc12`, the zone of inhibition at 100 µg/mL in experiment [6], in experiment [7], in [8] and in [9] was 11 to 28 mm each time.

Consider `Cc1ccc(Oc2nc3ccc(C)cc3cc2/C=N\NC(=O)c2cc(-c3cc4ccccc4o3)n(-c3ccccc3)n2)cc1`, for which the zone of inhibition at 250 µg/mL in experiment [18] and in experiment [19] was 12 to 14 mm each time.

For the compound `c1ccc2oc(-c3cn4c(-c5cc6ccccc6o5)csc4n3)cc2c1`, the zone of inhibition at 1000 µg/mL in [20], in experiment [21], in [22] and in experiment [23] was 6 to 23 mm each time.

Turning to `O=C1Nc2ccc(Cl)cc2/C1=N/NC(=O)c1cc2ccccc2o1`, in [5], the half-inhibitory concentration (IC50) fell in the range of 50 to 200 µM.

With `Cc1ccc(-c2csc3nc(-c4cc5cc(Br)ccc5o4)cn23)cc1`, the zone of inhibition at 1000 µg/mL in experiment [20], in experiment [21], in [22] and in experiment [23] was 6 to 23 mm each time.

Turning to `O=C1Nc2ccc(F)cc2/C1=N/NC(=O)c1cc2cc([N+](=O)[O-])ccc2o1`, the IC50 in experiment [5] was in the range of 50 to 200 µM.

Turning to `Cc1cc(NS(=O)(=O)c2cccs2)c2oc(COC(=O)NCc3ccccc3)cc2c1`, the zone of inhibition at 100 µg/mL in experiment [6], in experiment [7], in experiment [8] and in experiment [9] was 11 to 28 mm each time.

Consider `Nc1nn2c(-c3ccc(N4CCCCC4)cc3)cc(-c3cc4ccccc4o3)nc2c1/N=N/c1ccccc1`, for which the zone of inhibition at 50 µg/mL in experiment [24] and in experiment [25] was 9 to 18 mm each time.

`NC(=O)c1cnccn1` [PYRAZINAMIDE] yielded a minimal inhibitory concentration (MIC) in [2] of 3.12 µg/mL (≈ 25.4 µM).

On to `Cc1cc(NC(=O)c2ccccc2)c2oc(COC(=O)NCc3ccccc3)cc2c1`, for which the zone of inhibition at 100 µg/mL in experiment [6], in experiment [7], in [8] and in experiment [9] was 11 to 28 mm throughout.

The values are drawn from ChEMBL document CHEMBL4382229, “Benzofuran derivatives and their anti-tubercular, anti-bacterial activities” (Eur J Med Chem, 2019).
